# According to patent US8053467B2, “Flavor improving agent, and food and drink containing the same” (Takasago International Corporation, priority 2006, dated 2011):
# Experiments:
# [1] = Sensory evaluation of the flavor improving agents for the sugar-free sweetener; format: in vivo
# Procedure: A sugar-free sweetener having the formulation shown in Table 2 was obtained, and 12 g of the sugar-free sweetener was dissolved in 1 kg of ion exchanged water to obtain a 1.2 wt. % aqueous solution. 60 mg of the flavor improving agent in Example 2 was added to 300 g of the aqueous solution to obtain a sugar-free sweetener solution sample containing 0.02% by weight of the flavor improving agent. The content of 5-hydroxymethyl-2-furaldehyde bis(5-formylfurfuryl)acetal in the sugar-free sweetener was 0.00014% by weight.
# This sample was evaluated with regard to the items shown in Table 3 by a sensory evaluation method of comparing a sample with a control product. The evaluation was performed by a panel of 5 trained experts. The sample was evaluated with the points in the range of −3 to +3, with setting the control product at 0 point. The control product was not provided with a flavor improving agent (provided with ethanol).
# The numerals in the table are the averages of the 5 experts.
# [2] = literature report; cited from earlier work
# [3] = Bitterness threshold by sensory evaluation test (panel of 9 experts); format: in vivo; conditions: for bitterness at the maximum concentration: at 0.1% by weight, the maximum concentration (1000 times the acetal threshold)
# Procedure: 100 mg of 5-hydroxymethyl-2-furaldehyde bis(5-formylfurfuryl)acetal obtained in Example 1 was dissolved in 1 mL of ethanol, and 100 mL of water was added to produce 0.1% by weight of a 1 wt. % ethanol solution. This solution was diluted 10-fold with water repeatedly to prepare samples for evaluation. In consideration of the taste of ethanol itself, a 1 wt. % ethanol solution was prepared and diluted 10-fold with water repeatedly to prepare blanks respectively corresponding to the samples for evaluation. The evaluation was performed by a panel of 9 experts. The sensory evaluation test was performed from a sample/blank having a lower concentration. In the order of blanks to samples, the experts held 200 mg of each sample/blank in the mouth and evaluated the difference in taste.
# [4] = Sensory evaluation of the flavor improving agents for the coffee drink; format: in vivo; conditions: summary of Table 10
# Procedure: 60 mg of the flavor improving agent in Example 2 was added to 300 g of commercially available canned coffee to obtain a coffee drink containing 0.02% by weight of the flavor improving agent. The content of 5-hydroxymethyl-2-furaldehyde bis(5-formylfurfuryl)acetal in this coffee drink was 0.00014% by weight.
# This coffee drink was evaluated with regard to the items shown in Table 10 by a sensory evaluation method of comparing a sample with a control product. The evaluation was performed by a panel of 5 trained experts. Sensory evaluation of the coffee drink was carried out with the points in the range of −3 to +3, with setting the control product at 0 point, in the same manner as in Example 9. The control product was not provided with a flavor improving agent (provided with ethanol).
# [5] = same type of test as Example 9, agents prepared as in Example 2 with formulas (2) and (3), also with 100 times the amount
# [6] = sugar-free sweetener solution, summary of Table 3
compound,measurement,setting,value
O=Cc1ccc(COCc2ccc(C=O)o2)o1 [formula (3)],flavor improving effect in words,[1]; [5],None of the agents exhibited any flavor improving effect and provided various unpleasant tastes including astringency
same,reported taste,[2],unpleasant taste
same,bitterness at the maximum concentration,[3],did not provide bitterness
C[C@@H]1O[C@@H](O[C@H]2[C@H](Oc3cc(O)c4c(c3)O[C@H](c3ccc(O)cc3)CC4=O)O[C@H](CO)[C@@H](O)[C@@H]2O)[C@H](O)[C@H](O)[C@H]1O [naringin],flavor effect in words,[4],medicine-like unnatural bitterness and are poor in attractiveness
O.O.O.O.O.O.O.O.O.O.O.O.O=S(=O)([O-])[O-].O=S(=O)([O-])[O-].[Al+3].[K+] [potassium alum],flavor improving effect in words,[1]; [6],poor effect of reducing astringency or improving the sense of volume
"O=Cc1ccc(COC(OCc2ccc(C=O)o2)c2ccc(CO)o2)o1 [acetal compound of the present invention, 5-hydroxymethyl-2-furaldehyde bis(5-formylfurfuryl)acetal]",bitterness threshold,[3]; 1 ppm expressed in %,0.0001%
same,bitterness threshold,[3]; 1 ppm expressed in % by weight,0.0001 % by weight
same,bitterness threshold,"[3]; 10-fold dilutions in water vs ethanol blanks, panel of 9 experts",1 ppm
same,bitterness threshold converted to the molar concentration,[3]; converted from 1 ppm,about 10^−3 mM
αG hesperidin,flavor improving effect in words,[1]; [6],poor effect of reducing astringency or improving the sense of volume
diheterolevulosan II,flavor effect in words,[4],medicine-like unnatural bitterness and are poor in attractiveness
"O=Cc1ccc(CO)o1 [formula (2), 5-hydroxymethyl-2-furaldehyde]",flavor improving effect in words,[1]; [5],None of the agents exhibited any flavor improving effect and provided various unpleasant tastes including astringency
same,reported taste,[2],unpleasant taste
same,bitterness at the maximum concentration,[3],did not provide bitterness
